Source: patent publication US20110053897A1 (IRM LLC, priority 2009, published 2011)
Where two headings read alike, the source gives them in different places.

Target: T1, Syk kinase (Homo sapiens, UniProt P43405)
T1 construct: purchased
Assay: Syk kinase inhibition, Caliper LabChip off-chip mobility-shift kinase assay
Assay type: biochemical
Conditions: read-out: Syk Enzyme IC50
Outline: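 Purified Syk pre-incubated 15 min with compound in 100 mM HEPES pH 7.5, 1 mM DTT, 10 mM MgCl2 or MnCl2, 0.002% Brij-35, then 1.5 μM fluorescein peptide and ATP at apparent KM added; 1–1.5 h at room temperature, 4% DMSO, EDTA stop. Microfluidic mobility-shift product/substrate conversion gave % inhibition; IC50 from 12-point series (10–0.00003 μM) by 4-parameter fit.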

| Compound | IC50 (Caliper LabChip assay) | IC50 |
| --- | --- | --- |
| [2H]C([2H])([2H])n1ccc2cc(Nc3cc(C)ccn3)nc(N[C@H]3CC[C@@H](O)CC3)c2c1=O [compound 378] |  | 20 nM |
| Cc1ccnc(Nc2cc3ccn(C)c(=O)c3c(NC3CC3)n2)c1 [compound 534] |  | 129 nM |
| CC(C)(O)Cn1ccc2cc(-c3cnc(N)nc3)nc(NC(C)(C)C)c2c1=O [compound 928] | 44 nM |  |
| COCCN1CC(c2ccc(Nc3nc(-c4cncc(OC)n4)cc4cc[nH]c(=O)c34)cc2)C1 [compound 150] |  | 83 nM |
| C[C@@H](CO)Nc1nc(Nc2cnccn2)cc2ccn(CCC#N)c(=O)c12 [compound 1003] | 27 nM |  |
| COCCNC(=O)c1ccc(Nc2nc(-c3cncc(OC)n3)cc3cc[nH]c(=O)c23)cc1 [compound 59] |  | 168 nM |
| C/C=C/c1cc2cc[nH]c(=O)c2c(Nc2ccc(C3CCN(C4CC4)CC3)c(C)c2)n1 [compound 228] |  | 1660 nM |
| Cc1ccnc(Nc2cc3cc[nH]c(=O)c3c(NC3CCOCC3)n2)c1 [compound 293] |  | 145 nM |
| CCc1ccnc(Nc2cc3cc[nH]c(=O)c3c(Nc3ccc(CCN4CCN(CC)CC4)cc3)n2)c1 [compound 546] |  | 88 nM |
| CCn1ccc2cc(Nc3cc(C)ccn3)nc(NC3CC=C(C)CC3)c2c1=O (stereo not shown) [compound 954] | 754 nM |  |
| CCn1ccc2cc(Nc3cc(C)ccn3)nc(N[C@H]3CC[C@@H](O)C3)c2c1=O [compound 424] |  | 47 nM |
| CCn1ccc2cc(Nc3cnccn3)nc(NC(C)(C)CCO)c2c1=O [compound 783] | 179 nM |  |
| Nc1ncc(-c2cc3cc[nH]c(=O)c3c(NCCc3cccnc3)n2)cn1 [compound 188] |  | 93 nM |
| Cc1ccnc(Nc2cc3ccn(C)c(=O)c3c(Nc3ccc(C4CCN(C)CC4)cc3)n2)c1 [compound 309] |  | 16 nM |
| CC(C)(C)Nc1nc(Nc2cnccn2)cc2ccn(CCS(C)(=O)=O)c(=O)c12 [compound 738, 8-(tert-butylamino)-2-(2-(methylsulfonyl)ethyl)-6-(pyrazin-2-ylamino)-2,7-naphthyridin-1(2H)-one] | 9 nM |  |
| CN1CCC(Oc2cc(Nc3cc4ccn(C[C@H](O)CO)c(=O)c4c(NC(C)(C)C)n3)ncn2)CC1 [compound 649] | 6 nM |  |
| CCn1ccc2cc(-c3cnc(N)nc3)nc(NC(C)(C)CCO)c2c1=O [compound 1037] | 14 nM |  |

More lines, now with the values ahead:

| IC50 (Caliper LabChip assay) | IC50 | Compound |
| --- | --- | --- |
| 9 nM |  | C[C@@H](CO)Oc1cc(Nc2cc3ccn(C[C@H](O)CO)c(=O)c3c(NC(C)(C)C)n2)ncn1 [compound 643, 8-(tert-butylamino)-2-((S)-2,3-dihydroxypropyl)-6-(6-((S)-1-hydroxypropan-2-yloxy)pyrimidin-4-ylamino)-2,7-naphthyridin-1(2H)-one] |
|  | 166 nM | Cc1ccnc(Nc2cc3cc[nH]c(=O)c3c(NCCc3cccnc3)n2)c1 [compound 284] |
|  | 83 nM | O=c1[nH]ccc2cc(-c3cncc(NC4CC4)n3)nc(Nc3ccc(N4CCOCC4)cc3)c12 [compound 48] |
| 111 nM |  | Cc1cnccc1-c1ccnc(Nc2cc3ccn(CCO)c(=O)c3c(NC(C)(C)C)n2)c1 [compound 853] |
| < 1.01 nM |  | CCn1ccc2cc(-c3cnc(N)nc3)nc(NC3(CO)CCC3)c2c1=O [compound 905] |
| 45 nM |  | CC1(Nc2nc(Nc3cc(C(C)(C)O)ccn3)cc3ccn(CCO)c(=O)c23)CCC1 [compound 704] |
|  | 864 nM | Cc1cc(Nc2nc(C(C)C)cc3cc[nH]c(=O)c23)ccc1C1CCN(C2CC2)CC1 [compound 231] |
| 9 nM |  | CC(C)(C)Nc1nc(-c2cnc(N)nc2)cc2ccn(C[C@H](O)CO)c(=O)c12 [compound 934] |
|  | 4 nM | COc1nc(-c2cc3cc[nH]c(=O)c3c(Nc3ccc(C4CCNCC4)c(C)c3)n2)cnc1N [compound 168] |
|  | 428 nM | Cn1ccc2cc(-c3cnc(N)nc3)nc(NCCN3CCOCC3)c2c1=O [compound 36] |
| 48 nM |  | CC(O)c1ccnc(Nc2cc3ccn(CC(N)=O)c(=O)c3c(NC3(C)CC3)n2)c1 (stereo not shown) [compound 723] |
|  | 751 nM | Cn1ccc2cc(Nc3cnccn3)nc(Nc3cccc(S(C)(=O)=O)c3)c2c1=O [compound 390] |
| 216 nM |  | CC(C)(C)Nc1nc(Nc2cc(N3CCC(O)CC3)ccn2)cc2ccn(CCO)c(=O)c12 [compound 846] |
|  | 41 nM | Cc1ccnc(Nc2cc3ccn(C)c(=O)c3c(N[C@H]3CC[C@H](O)CC3)n2)c1 [compound 357] |
|  | 343 nM | Cc1ccnc(Nc2cc3cc[nH]c(=O)c3c(NC(C)C(C)C)n2)c1 (stereo not shown) [compound 268] |
|  | 140 nM | CC(C)Nc1nc(-c2cnc(N)nc2)cc2ccn(CCO)c(=O)c12 [compound 32] |
| 643 nM |  | CC(C)(C)Nc1nc(Nc2cc(C(=O)O)ccn2)cc2ccn(CCO)c(=O)c12 [compound 680] |
|  | 186 nM | CCOC(=O)c1ccc(Nc2cc3cc[nH]c(=O)c3c(Nc3ccc(N4CCOCC4)cc3)n2)nc1 [compound 578] |
| 203 nM |  | CC1(Nc2nc(Nc3cc(C(C)(C)O)ccn3)cc3ccn(CC(N)=O)c(=O)c23)CC1 [compound 724] |
| 43 nM |  | CC(C)(C)Nc1nc(-c2cnc(N)nc2)cc2ccn(CC(N)=O)c(=O)c12 [compound 663] |
